Measured values from patent publication US6900200B2, “Tricyclic hydroxy carboxamides and derivatives thereof tocolytic oxytocin receptor antagonists” (Wyeth, priority 2001, dated 2005).

What was measured:
[1] = target: T1, human vasopressin V1a receptor subtype (Homo sapiens, UniProt P37288); experiment: Vasopressin binding in CHO cell membranes expressing human vasopressin V1a subtype receptors ([3H]Manning ligand radioligand binding); conditions: for inhibition at 0.1 µM: @ 100 nM; for IC50: value printed in parentheses
T1 construct: host or cells: CHO cells; pZeoSV vector for the Thibonnier line
Source text: Vasopressin Binding in Chinese Hamster Ovary Cell Membranes Expressing Human Vasopressin V1a Subtype Receptors
Chinese hamster ovary cells (CHO cells) stably transfected with the human vasopressin V1a subtype receptors were either obtained from BioSignal Inc., 1744 rue Williams, Montreal, Quebec, Canada or obtained from M. Thibonnier, Case Western Reserve University School of Medicine, Cleveland, Ohio.
A. Passaging and Amplification of Cells
CHO cells transfected with the human vasopressin V1a subtype receptors obtained from M. Thibonnier (pZeoSV vector) are allowed to grow to confluency (approx. >90%) in T-150 flasks under sterile conditions, in a cell culture medium of F-12 Nutrient Mixture (HAM) with L-glutamine (Gibco Cat. #11765-054) containing 15 mM HEPES (Gibco Cat. #15630-080), 1% antibiotic/antimycotic (add 5 mL 100×, Gibco Cat. #15240-062 per 500 mL F-12), 250 μg/mL Zeocin (add 1.25 mL of 100 mg/mL Invitrogen R-250-01 per 500 mL F-12) and 10% Fetal Bovine Serum (Qualified, heat inactivated, Gibco Cat. #16140-063). The medium is removed by aspiration and the cells are washed with 10 mL of Hank's Balanced Salt solution (Gibco Cat. #14175-095). The salt solution is removed by aspiration and the cells are trypsinized with 5 mL of trypsin-EDTA (0.05% trypsin, 0.53 mM EDTA-4Na, Gibco Cat. #25300-070) for 1 min. The trypsin is removed by aspiration and the cells dislodged by tapping. Cell Culture medium (e.g. 30 mL for 1:30 split) is immediately added and mixed well to inactivate trypsin. 1 mL of detached cells is added to new culture flasks containing fresh cell culture medium (e.g., into 25 mL per T-150 flask), and mixed gently. The cells are incubated at 37° C. in 5% CO2. The medium is changed at 3 to 4 days interval (or as appropriate). The cells grow to confluency (approx. >75%-95%) within 7-8 days. All steps are done under sterile conditions.
The cells are washed twice gently with Hank's Balanced Salt solution (e.g,. use 10 mL per T-150 flask). The excess is removed and the cells are bathed for 15-30 min. in an enzyme-free Cell Dissociation Buffer (e.g. use 8 mL Hank's Based, Gibco Cat. #13150-016 per T-150 flask) until the cells are loosened. The contents are transferred to centrifuge tubes (50 mL) kept in an ice bath. All subsequent steps are done at 4° C. The tubes are centrifuged at 300×g for 15 min (1380 rpm on SORVAL, Model RT6000D, using the rotor for 50 mL tubes). The supernatant is discarded and the cells suspended in homogenizing buffer(10 mM Tris-HCl containing 0.25 M sucrose and 1 mM EDTA, pH 7.4) ensuring that the volume of the buffer is about ten times the volume of the cell pellet. The cells are pooled into a centrifuge tube (50 mL) and homogenized with Polytron at setting 6 for 10 sec. The homogenate is transferred into a Potter-Elvjehm homogenizer and homogenized with 3 strokes. The homogenate is centrifuged at 1500×g for 10 min at 4° C. (3100 rpm using SORVAL, model RT6000D, using the rotor for 50 mL tubes). The pellet is discarded. The supernatant is centrifuged at 100,000×g for 60 min. at 4° C. (Beckman L8-80M ultracentrifuge; spin at 37,500 rpm with rotor type 70 Ti for 50 mL tubes; 38,000 rpm with type 80Ti for 15 mL tubes; or 35,800 rpm with rotor type 45Ti). The supernantant is discarded and the pellet suspended in 3 to 4 mL of Tris buffer (50 mM TRIS—HCl, pH 7.4). The protein content is estimated by the Bradford or Lowry method. The volume of the membrane suspension is adjusted with the membrane buffer (50 mM Tris-HCl containing 0.1% BSA and 0.1 mM PMSF) to give 3.0 mg/mL (or as appropriate) of protein. The membranes are aliquoted and stored at −70° C.
C. Radioligand Binding Assay […]

T1 sequence (P37288 whole entry): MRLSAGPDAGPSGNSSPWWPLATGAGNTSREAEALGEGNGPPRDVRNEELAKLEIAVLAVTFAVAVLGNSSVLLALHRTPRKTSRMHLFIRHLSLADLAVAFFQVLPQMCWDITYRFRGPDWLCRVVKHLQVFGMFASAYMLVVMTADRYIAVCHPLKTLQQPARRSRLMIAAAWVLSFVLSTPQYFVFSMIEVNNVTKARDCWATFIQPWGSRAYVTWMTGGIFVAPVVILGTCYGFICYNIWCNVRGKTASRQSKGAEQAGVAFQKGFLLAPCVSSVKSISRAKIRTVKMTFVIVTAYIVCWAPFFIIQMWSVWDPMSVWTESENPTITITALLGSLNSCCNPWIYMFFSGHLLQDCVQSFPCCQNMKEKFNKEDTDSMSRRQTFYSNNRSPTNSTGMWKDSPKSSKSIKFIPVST

Structure (SMILES) | melting point | inhibition at 0.1 µM [1] [%] | IC50 [1] [nM]
COc1cc2c(cc1OC)N(C(=O)c1ccc(-c3ccccc3C(F)(F)F)c(C)c1)Cc1ccc(C(=O)N(CCO)CCO)n1C2 [Example 19, N,N-Bis(2-Hydroxyethyl)-7,8-dimethoxy-10-{[2-methyl-2′-trifluoromethyl-[1,1′-biphenyl]-4-yl]carbonyl}-10,11-dihydro-5H-pyrrolo[2,1-c][1,4]benzodiazepine-3-carboxamide] | 130 to 132 °C | 1 | –
COc1cc(C(=O)N2Cc3ccc(C(=O)N(C)CC(O)CO)n3Cc3ccccc32)ccc1-c1ccccc1C(F)(F)F (centres unmarked) [Example 21, N-(2,3-Dihydroxypropyl)-10-{[2-methoxy-2′-trifluoromethyl-[1,1′-biphenyl]-4-yl]carbonyl}-N-methyl-10,11-dihydro-5H-pyrrolo[2,1-c][1,4]benzodiazepine-3-carboxamide] | 119 to 123 °C | – | 376
COc1cc(C(=O)N2Cc3ccc(C(=O)N(C)CC(O)CN(C)C)n3Cc3ccccc32)ccc1-c1ccccc1C(F)(F)F (centres unmarked) [Example 22, N-[(3-Dimethylamino)-2-hydroxy-propyl]-10-{[2-methoxy-2′-trifluoromethyl-[1,1′-biphenyl]-4-yl]carbonyl}-N-methyl-10,11-dihydro-5H-pyrrolo[2,1-c][1,4]benzodiazepine-3-carboxamide] | 120 to 125 °C (dec.) | – | 227
COc1cc2c(cc1OC)N(C(=O)c1ccc(-c3ccccc3OC)c(C)c1)Cc1ccc(C(=O)N(C)C[C@H](O)[C@@H](O)[C@H](O)[C@H](O)CO)n1C2 [Example 37, 7,8-Dimethoxy-10-[(2′-methoxy-2-methyl-[1,1′-biphenyl]-4-yl)carbonyl]-10,11-dihydro-5H-pyrrolo[2,1-c][1,4]benzodiazepine-3-carboxylic acid methyl-[(2S, 3R, 4R, 5R)-2,3,4,5,6-pentahydroxy-hexyl)-amide] | 110 to 120 °C | 6 | –
